Activity calls are given as the source filed them. The rule behind the calls is not given here.
Legend:
U-251 = experiment: Cytotoxicity against human U251 cells at 10 uM after 48 hrs by sulforhodamine B assay relative to control; format: functional
CAKI-1 = experiment: Cytotoxicity against human CAKI-1 cells at 10 uM after 48 hrs by sulforhodamine B assay relative to control; format: functional
COLO 205 = experiment: Cytotoxicity against human COLO205 cells at 10 uM after 48 hrs by sulforhodamine B assay relative to control; format: functional
NCI-H460 = experiment: Cytotoxicity against human NCI-H460 cells at 10 uM after 48 hrs by sulforhodamine B assay relative to control; format: functional
NCI-H226 = experiment: Cytotoxicity against human NCI-H226 cells at 10 uM after 48 hrs by sulforhodamine B assay relative to control; format: functional
MDA-MB-468 = experiment: Cytotoxicity against human MDA-MB-468 cells at 10 uM after 48 hrs by sulforhodamine B assay relative to control; format: functional
NCI-H522 = experiment: Cytotoxicity against human NCI-H522 cells at 10 uM after 48 hrs by sulforhodamine B assay relative to control; format: functional
OVCAR-8 = experiment: Cytotoxicity against human OVCAR8 cells at 10 uM after 48 hrs by sulforhodamine B assay relative to control; format: functional
SNB-75 = experiment: Cytotoxicity against human SNB75 cells at 10 uM after 48 hrs by sulforhodamine B assay relative to control; format: functional
T47D = experiment: Cytotoxicity against human T47D cells at 10 uM after 48 hrs by sulforhodamine B assay relative to control; format: functional
SF-295 = experiment: Cytotoxicity against human SF295 cells at 10 uM after 48 hrs by sulforhodamine B assay relative to control; format: functional
NCI-H322M = experiment: Cytotoxicity against human NCI-H322M cells at 10 uM after 48 hrs by sulforhodamine B assay relative to control; format: functional
KM12 = experiment: Cytotoxicity against human KM12 cells at 10 uM after 48 hrs by sulforhodamine B assay relative to control; format: functional
SK-MEL-5 = experiment: Cytotoxicity against human SK-MEL-5 cells at 10 uM after 48 hrs by sulforhodamine B assay relative to control; format: functional
BT-549 = experiment: Cytotoxicity against human BT549 cells at 10 uM after 48 hrs by sulforhodamine B assay relative to control; format: functional
LOX IMVI = experiment: Cytotoxicity against human LOXIMVI cells at 10 uM after 48 hrs by sulforhodamine B assay relative to control; format: functional
SK-MEL-28 = experiment: Cytotoxicity against human SK-MEL-28 cells at 10 uM after 48 hrs by sulforhodamine B assay relative to control; format: functional
HCC 2998 = experiment: Cytotoxicity against human HCC2998 cells at 10 uM after 48 hrs by sulforhodamine B assay relative to control; format: functional
HOP-92 = experiment: Cytotoxicity against human HOP92 cells at 10 uM after 48 hrs by sulforhodamine B assay relative to control; format: functional
Malme-3M = experiment: Cytotoxicity against human MALME-3M cells at 10 uM after 48 hrs by sulforhodamine B assay relative to control; format: functional
UACC-257 = experiment: Cytotoxicity against human UACC257 cells at 10 uM after 48 hrs by sulforhodamine B assay relative to control; format: functional
HL-60(TB) = experiment: Cytotoxicity against human HL-60(TB) cells at 10 uM after 48 hrs by sulforhodamine B assay relative to control; format: functional
HOP-62 = experiment: Cytotoxicity against human HOP62 cells at 10 uM after 48 hrs by sulforhodamine B assay relative to control; format: functional
HT-29 = experiment: Cytotoxicity against human HT-29 cells at 10 uM after 48 hrs by sulforhodamine B assay relative to control; format: functional
OVCAR-3 = experiment: Cytotoxicity against human OVCAR3 cells at 10 uM after 48 hrs by sulforhodamine B assay relative to control; format: functional
SW-620 = experiment: Cytotoxicity against human SW620 cells at 10 uM after 48 hrs by sulforhodamine B assay relative to control; format: functional
OVCAR-5 = experiment: Cytotoxicity against human OVCAR5 cells at 10 uM after 48 hrs by sulforhodamine B assay relative to control; format: functional
MDA-MB-435 = experiment: Cytotoxicity against human MDA-MB-435 cells at 10 uM after 48 hrs by sulforhodamine B assay relative to control; format: functional
TK-10 = experiment: Cytotoxicity against human TK10 cells at 10 uM after 48 hrs by sulforhodamine B assay relative to control; format: functional
IGROV-1 = experiment: Cytotoxicity against human IGROV1 cells at 10 uM after 48 hrs by sulforhodamine B assay relative to control; format: functional
MOLT-4 = experiment: Cytotoxicity against human MOLT4 cells at 10 uM after 48 hrs by sulforhodamine B assay relative to control; format: functional
HCT-15 = experiment: Cytotoxicity against human HCT15 cells at 10 uM after 48 hrs by sulforhodamine B assay relative to control; format: functional
RPMI-8226 = experiment: Cytotoxicity against human RPMI8226 cells at 10 uM after 48 hrs by sulforhodamine B assay relative to control; format: functional
MCF7 = experiment: Cytotoxicity against human MCF7 cells at 10 uM after 48 hrs by sulforhodamine B assay relative to control; format: functional
A549 = experiment: Cytotoxicity against human A549 cells at 10 uM after 48 hrs by sulforhodamine B assay relative to control; format: functional
NCI/ADR-RES = experiment: Cytotoxicity against human NCI/ADR-RES cells at 10 uM after 48 hrs by sulforhodamine B assay relative to control; format: functional
786-0 = experiment: Cytotoxicity against human 786-0 cells at 10 uM after 48 hrs by sulforhodamine B assay relative to control; format: functional
DU-145 = experiment: Cytotoxicity against human DU145 cells at 10 uM after 48 hrs by sulforhodamine B assay relative to control; format: functional
SK-MEL-2 = experiment: Cytotoxicity against human SK-MEL-2 cells at 10 uM after 48 hrs by sulforhodamine B assay relative to control; format: functional
RXF 393 = experiment: Cytotoxicity against human RXF393 cells at 10 uM after 48 hrs by sulforhodamine B assay relative to control; format: functional
SF-268 = experiment: Cytotoxicity against human SF268 cells at 10 uM after 48 hrs by sulforhodamine B assay relative to control; format: functional
K562 = experiment: Cytotoxicity against human K562 cells at 10 uM after 48 hrs by sulforhodamine B assay relative to control; format: functional
ACHN = experiment: Cytotoxicity against human ACHN cells at 10 uM after 48 hrs by sulforhodamine B assay relative to control; format: functional
HCT-116 = experiment: Cytotoxicity against human HCT116 cells at 10 uM after 48 hrs by sulforhodamine B assay relative to control; format: functional
NCI-H23 = experiment: Cytotoxicity against human NCI-H23 cells at 10 uM after 48 hrs by sulforhodamine B assay relative to control; format: functional
MDA-MB-231 = experiment: Cytotoxicity against human MDA-MB-231 cells at 10 uM after 48 hrs by sulforhodamine B assay relative to control; format: functional
PC-3 [1] = experiment: Cytotoxicity against human PC3 cells at 10 uM after 48 hrs by sulforhodamine B assay relative to control; format: functional
SN12C = experiment: Cytotoxicity against human SN12C cells at 10 uM after 48 hrs by sulforhodamine B assay relative to control; format: functional
Homo sapiens = organism: Homo sapiens; experiment: Inhibition of telomerase (unknown origin) at 10 uM TRAP assay
[2] = Cytotoxicity against human Hs 578T cells at 10 uM after 48 hrs by sulforhodamine B assay relative to control; format: functional
M14 = experiment: Cytotoxicity against human M14 cells at 10 uM after 48 hrs by sulforhodamine B assay relative to control; format: functional
[3] = Cytotoxicity against human EKVX cells at 10 uM after 48 hrs by sulforhodamine B assay relative to control; format: functional
PC-3 [4] = experiment: Cytotoxicity against human PC3 cells after 48 hrs by sulforhodamine B assay; format: functional, cell-based; conditions: PC-3, 48 h
CCRF-CEM = experiment: Cytotoxicity against human CCRF-CEM cells at 10 uM after 48 hrs by sulforhodamine B assay relative to control; format: functional
SR = experiment: Cytotoxicity against human SR cells at 10 uM after 48 hrs by sulforhodamine B assay relative to control; format: functional
UACC-62 = experiment: Cytotoxicity against human UACC62 cells at 10 uM after 48 hrs by sulforhodamine B assay relative to control; format: functional
SF-539 = experiment: Cytotoxicity against human SF539 cells at 10 uM after 48 hrs by sulforhodamine B assay relative to control; format: functional
SNB-19 = experiment: Cytotoxicity against human SNB19 cells at 10 uM after 48 hrs by sulforhodamine B assay relative to control; format: functional
OVCAR-4 = experiment: Cytotoxicity against human OVCAR4 cells at 10 uM after 48 hrs by sulforhodamine B assay relative to control; format: functional
UO-31 = experiment: Cytotoxicity against human UO31 cells at 10 uM after 48 hrs by sulforhodamine B assay relative to control; format: functional

CCNCCC(=O)Nc1ccc2c(c1)C(=O)c1cc(NC(=O)CCNCC)ccc1-2
Activity (U-251): 92.86%
Activity (CAKI-1): 96.47%
Activity (COLO 205): 110.13%
Activity (NCI-H460): 109.14%
Activity (NCI-H226): 105.54%
Activity (MDA-MB-468): 96.83%
Activity (NCI-H522): 103.53%
Activity (OVCAR-8): 103.63%
Activity (SNB-75): 92.33%
Activity (T47D): 108.97%
Activity (SF-295): 88.95%
Activity (NCI-H322M): 100.96%
Activity (KM12): 114.64%
Activity (SK-MEL-5): 102.17%
Activity (BT-549): 119.2%
Activity (LOX IMVI): 97.55%
Activity (SK-MEL-28): 105.31%
Activity (HCC 2998): 104.87%
Activity (HOP-92): 87.24%
Activity (Malme-3M): 101.61%
Activity (UACC-257): 111.63%
Activity (HL-60(TB)): 104.46%
Activity (HOP-62): 105.98%
Activity (HT-29): 104.19%
Activity (OVCAR-3): 120.25%
Activity (SW-620): 101.71%
Activity (OVCAR-5): 110.42%
Activity (MDA-MB-435): 97.63%
Activity (TK-10): 103.34%
Activity (IGROV-1): 108.06%
Activity (MOLT-4): 98.76%
Activity (HCT-15): 108.19%
Activity (RPMI-8226): 104.16%
Activity (MCF7): 87.69%
Activity (A549): 94.72%
Activity (NCI/ADR-RES): 96.39%
Activity (786-0): 102.08%
Activity (DU-145): 120.33%
Activity (SK-MEL-2): 126.91%
Activity (RXF 393): 105.09%
Activity (SF-268): 121.13%
Activity (K562): 92.16%
Activity (ACHN): 120.72%
Activity (HCT-116): 109.77%
Activity (NCI-H23): 98.77%
Activity (MDA-MB-231): 105.71%
Activity (PC-3 [1]): 101.42%
Activity (SN12C): 94.35%
inhibition (Homo sapiens): inactive
Activity [2]: 98.9%
Activity (M14): 113.99%
Activity [3]: 102.12%
IC50 (PC-3 [4]): > 30 µM
Activity (CCRF-CEM): 101.3%
Activity (SR): 101.47%
Activity (UACC-62): 100.48%
Activity (SF-539): 116.97%
Activity (SNB-19): 100.42%
Activity (OVCAR-4): 105.01%
Activity (UO-31): 102.42%

O=C(CCN1CCOCC1)Nc1ccc2c(c1)C(=O)c1cc(NC(=O)CCN3CCOCC3)ccc1-2
Activity (U-251): 94.41%
Activity (CAKI-1): 96.99%
Activity (COLO 205): 105.48%
Activity (NCI-H460): 105.97%
Activity (NCI-H226): 109.63%
Activity (MDA-MB-468): 101.73%
Activity (NCI-H522): 102.66%
Activity (OVCAR-8): 103.76%
Activity (SNB-75): 82.97%
Activity (T47D): 101.34%
Activity (SF-295): 105.19%
Activity (NCI-H322M): 109.97%
Activity (KM12): 105.8%
Activity (SK-MEL-5): 102.76%
Activity (BT-549): 113.53%
Activity (LOX IMVI): 89.4%
Activity (SK-MEL-28): 104.41%
Activity (HCC 2998): 100.06%
Activity (Malme-3M): 118.44%
Activity (UACC-257): 113.13%
Activity (HL-60(TB)): 112.24%
Activity (HOP-62): 115.73%
Activity (HT-29): 111.58%
Activity (OVCAR-3): 121.23%
Activity (SW-620): 106.16%
Activity (OVCAR-5): 103.99%
Activity (MDA-MB-435): 104.2%
Activity (TK-10): 112.26%
Activity (IGROV-1): 95.95%
Activity (MOLT-4): 94.98%
Activity (HCT-15): 108.42%
Activity (RPMI-8226): 99.87%
Activity (MCF7): 88.76%
Activity (A549): 98.13%
Activity (NCI/ADR-RES): 102.84%
Activity (786-0): 110.24%
Activity (DU-145): 117.55%
Activity (SK-MEL-2): 131.96%
Activity (RXF 393): 99.09%
Activity (SF-268): 115.57%
Activity (K562): 99.03%
Activity (ACHN): 101.15%
Activity (HCT-116): 114.57%
Activity (NCI-H23): 94.62%
Activity (MDA-MB-231): 122.26%
Activity (PC-3 [1]): 113.85%
Activity (SN12C): 104.8%
inhibition (Homo sapiens): inactive
Activity [2]: 101.67%
Activity (M14): 127.51%
Activity [3]: 99.88%
IC50 (PC-3 [4]): > 30 µM
Activity (CCRF-CEM): 92.01%
Activity (SR): 98.5%
Activity (UACC-62): 122.9%
Activity (SF-539): 107.54%
Activity (SNB-19): 110.22%
Activity (OVCAR-4): 105.22%
Activity (UO-31): 86.58%
